One assay deals with T1, hEP2 (Homo sapiens, UniProt P43116).
T1 construct: expressed in transfected cells; host or cells: HEK293
As to the kind of experiment: hEP2 cAMP assay. Format: cell-based. As to conditions: HEK293 cells overexpressing hEP2; PGE2 agonist 400 pM; graded per Table 21; read-out: IC50 (nM) EP2 cAMP. In outline:
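HEK293 cells overexpressing hEP2, serum-starved 4 h, then 1,000 cells/well treated with compound (10 μM–0.001 nM) plus 400 pM PGE2 (about EC50-80) in HBSS buffer with 0.5 mM IBMX for 12 min at room temperature. cAMP measured by TR-FRET (665/615 nm) as % of DMSO control; IC50 from 4-parameter fit, median of repeats.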
For orientation: Changes in cAMP serve as a functional read-out for many G protein-coupled receptors.

The target of another assay is T2, hEP4 (Homo sapiens, UniProt P35408).
T2 construct: expressed in transfected cells; host or cells: HEK293
T2 sequence (P35408 whole entry): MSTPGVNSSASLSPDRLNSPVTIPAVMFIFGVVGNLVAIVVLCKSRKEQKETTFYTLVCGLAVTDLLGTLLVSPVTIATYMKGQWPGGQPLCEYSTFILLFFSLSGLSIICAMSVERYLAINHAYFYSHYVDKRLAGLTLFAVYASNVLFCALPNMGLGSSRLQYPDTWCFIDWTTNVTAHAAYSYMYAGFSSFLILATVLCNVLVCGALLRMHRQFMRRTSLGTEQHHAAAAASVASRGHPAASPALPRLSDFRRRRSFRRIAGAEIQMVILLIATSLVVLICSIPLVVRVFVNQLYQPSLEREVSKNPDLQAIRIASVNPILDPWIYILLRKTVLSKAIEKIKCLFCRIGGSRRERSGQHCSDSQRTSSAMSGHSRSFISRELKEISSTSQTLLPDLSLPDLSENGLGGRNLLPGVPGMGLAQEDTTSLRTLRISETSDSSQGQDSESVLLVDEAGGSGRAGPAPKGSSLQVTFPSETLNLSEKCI
Description: hEP4 cAMP assay. Format: cell-based. As to conditions: HEK293 cells overexpressing hEP4; PGE2 agonist 20 nM; graded per Table 21; read-out: IC50 (nM) EP4 cAMP. In outline: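 HEK293 cells overexpressing hEP4, starved 4 h, were treated with compound (10 μM-0.001 nM) plus 20 nM PGE2 (EC50-80) in HBSS buffer with 0.5 mM IBMX for 18.5 min at room temperature. cAMP was read by TR-FRET (665/615 nm) as % of DMSO control; IC50 from 4-parameter fit, median of multiple experiments.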

T1 sequence (P43116 whole entry): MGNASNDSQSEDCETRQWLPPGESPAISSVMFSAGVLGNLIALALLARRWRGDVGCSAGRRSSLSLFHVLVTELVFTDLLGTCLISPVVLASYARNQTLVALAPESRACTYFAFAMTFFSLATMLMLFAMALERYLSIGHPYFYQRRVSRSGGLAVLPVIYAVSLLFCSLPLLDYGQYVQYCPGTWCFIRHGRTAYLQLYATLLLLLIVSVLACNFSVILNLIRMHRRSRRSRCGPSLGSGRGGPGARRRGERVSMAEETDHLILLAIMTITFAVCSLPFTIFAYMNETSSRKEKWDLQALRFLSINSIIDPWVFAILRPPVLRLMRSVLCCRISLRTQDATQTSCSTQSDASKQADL

As to `COc1cccc(-c2ccc(Cn3ccc4scc(C(=O)NC5CC6(C5)CC(C(=O)O)C6)c43)cc2)n1` (stereo not drawn) [Example 108, 6-(4-(4-(6-methoxypyridin-2-yl)benzyl)-4H-thieno[3,2-b]pyrrole-3-carboxamido)spiro[3.3]heptane-2-carboxylic acid], the 50% inhibitory concentration (IC50) – broadly, the concentration that gives 50% inhibition – is 500 to 5000 nM on hEP2 and less than 500 nM at hEP4.
As for `COc1ccnc(-c2ccc(Cn3ccc4scc(C(=O)NC5CC6(C5)CC(C(=O)O)C6)c43)cc2)c1` (stereo not drawn) [Example 109, 6-(4-(4-(4-methoxypyridin-2-yl)benzyl)-4H-thieno[3,2-b]pyrrole-3-carboxamido)spiro[3.3]heptane-2-carboxylic acid], the IC50 on hEP2 was 500 to 5000 nM; at hEP4, less than 500 nM.
On to `COc1cc(F)cc(-c2ccc(Cn3ccc4scc(C(=O)NC5CC6(C5)CC(C(=O)O)C6)c43)cn2)c1` (stereo not drawn) [Example 110, 6-(4-((6-(3-fluoro-5-methoxyphenyl)pyridin-3-yl)methyl)-4H-thieno[3,2-b]pyrrole-3-carboxamido)spiro[3.3]heptane-2-carboxylic acid], for which the half-maximal inhibitory concentration (IC50) at hEP2 and at hEP4 was less than 500 nM each time.
On to `Cc1cnn(-c2ccc(Cn3ccc4scc(C(=O)NC5CC6(C5)CC(C(=O)O)C6)c43)cc2)c1` (stereo not drawn) [Example 111, 6-(4-(4-(4-methyl-1H-pyrazol-1-yl)benzyl)-4H-thieno[3,2-b]pyrrole-3-carboxamido)spiro[3.3]heptane-2-carboxylic acid], for which the IC50 was more than 10000 nM at hEP2 and less than 500 nM at hEP4.
Consider `Cc1cc(C(F)(F)F)n(-c2ccc(Cn3ccc4scc(C(=O)NC5CC6(C5)CC(C(=O)O)C6)c43)cc2)n1` (stereo not drawn) [Example 112, 6-(4-(4-(3-methyl-5-(trifluoromethyl)-IH-pyrazol-1-yl)benzyl)-4H-thieno[3,2-b]pyrrole-3-carboxamido)spiro[3.3]heptane-2-carboxylic acid], for which the IC50 at hEP2 is more than 10000 nM; on hEP4 it was 500 to 5000 nM.
Consider `COc1cc(F)cc(-c2ccc(Cn3ccc4scc(C(=O)NC5CC6(C5)CC(C(=O)O)C6)c43)nc2)c1` (stereo not drawn) [Example 113, 6-(4-((5-(3-fluoro-5-methoxyphenyl)pyridin-2-yl)methyl)-4H-thieno[3,2-b]pyrrole-3-carboxamido)spiro[3.3]heptane-2-carboxylic acid], for which the results for the IC50 at hEP2 and at hEP4 were 500 to 5000 nM and less than 500 nM, respectively.
